According to patent publication US20250360142A1, “NOVEL ATP-SENSITIVE POTASSIUM CHANNEL POTENTIATORS, THEIR PREPARATION AND USE” (RHYTHM PHARMACEUTICALS, INC., priority 2022, published 2025):

system: EndoC-βH1 Cell Line; assay: GSIS assay in EndoC-βH1 cell line; assay type: cell-based; details: not given
Procedure: (§1) INS-1E, rat pancreatic tumor (insulinoma) cells were used in the GSIS assay. INS-1E cells were thawed and incubated in culture medium (CM) (RPMI 1640+Glucose q.s., HEPES 25 mM, Na-Pyruvat 1 mM, 2-Mercaptoethanol 50 μM, Fetal Calf Serum; heat inactivated (FCS) 10%, Penicillin/Streptomycin 100 U/ml) at 37° C.; 5% CO2 in a humidified atmosphere. 96 welled plates are coated with Matrigel by incubating the plates with 1 ml pre-diluted 1:10 with cold basal medium with 100 μl/well at 37° C. for 1 hour. Matrigel is then removed and replaced with 100 μl CM. Cells are then seeded into the wells as 70 000 cells/well. CM is refreshed with 200 μl fresh CM on the third day. CM is refreshed again with 200 μl fresh CM on the sixth day. GSIS assay is performed on the seventh day and cells in wells are washed with PKrebs®BSA and incubated with 100 μL/well for 2 h. Secretion plates are placed in an incubator at 37° C., 5% C02 and saturated humidity for 60 min. Meanwhile, lysis solution is prepared by adding 1 tablet of protease inhibitor/10 mL TETG solution and kept at 4° C. until the end of the experiment. The other incubation buffers are prepared without adding pharmacological compounds, aliquoted and then placed in a water bath at 37° C. The samples are prepared including negative (βKrebs®B0=0 mM Glucose) and positive controls (PKrebs®B20=20 mM Glucose) and each compound to be tested is diluted in DMSO as having a series of final concentration including 10.00, 4.00, 1.60, 0.64, 0.26, 0.10, 0.04, 0.02 μM.
(§2) After 2 hours of starvation, glucose stimulation and treatments are initiated. KRB Buffer from cells is removed by pipetting. The solutions are homogenized and the cells are treated with 90 µL/well. 10 μl from 10-fold compound dilution is added to the assay plate (final 100 μl/well) according to the following layout for each compound to be tested.
(§3) Incubation time is 40 minutes. Plates are placed in an incubator at 37° C., 5% CO2 and saturated humidity. After incubation, 80 μL of supernatants are collected without disrupting the cell layer and stored at 4° C. or on ice until centrifugation. Remaining medium are removed from each well and 100 μL/well of cold lysis solution is added and incubated for minimum 2 minutes at room temperature. Cell lysis is observed under microscope and waited for maximum for 5 more minutes until the lysis is complete. Cell lysates are collected and all samples including supernatants are centrifuged at 700×g, 5 min at 4° C. 30 μL of each samples are transferred into aliquots for ELISA. ELISA is performed with HTRF Assay Kit comprising an insulin high range kit supplied by Cisbio/Perkin Elmer. 5 μl of each Insulin standard and 5 μl of either supernatant or lysate are transferred on HTRF plate. 40 μl/well of Anti-insulin—XL665 and 20 μl/well of Anti-insulin—EU are added to each well and the plate is read on HTRF compatible reader (fluorescence 620 nm & 665 nm).
GSIS experiments were also performed in other cell lines, e.g., EndoC-βH1, a canonical cell line for screening new therapeutic compounds.

Structure (SMILES)	IC50 [nM]
C[C@@H]1CC1NC1=NS(=O)(=O)c2cc(F)c(Cl)cc2N1 (mixture of isomers) [Compound 25, (rac)-trans-6-chloro-7-fluoro-3-((2-methylcyclopropyl)amino)-4H-benzo[e][1,2,4|thiadiazine 1,1-dioxide]	1000 to 2000
O=S1(=O)N=C(NC2CC23CC3)Nc2cc(Cl)c(F)cc21 (stereo not shown) [Compound 28, 6-chloro-7-fluoro-3-(spiro[2.2]pentan-1-ylamino)-4H-benzo[e][1,2,4]thiadiazine 1,1-dioxide]	< 500
O=S1(=O)N=C(NC2CC23CC3)Nc2cc(Cl)c(F)cc21 (single isomer, unassigned) [Compound 29, (S*)-6-chloro-7-fluoro-3-(spiro[2.2]pentan-1-ylamino)-4H-benzo[e][1,2,4]-thiadiazine 1,1-dioxide]	≥ 2000
CC1(C)CC1NC1=NS(=O)(=O)c2cc(F)c(Cl)cc2N1 (single isomer, unassigned) [Compound 22, (R*)-6-chloro-3-((2,2-dimethylcyclopropyl)amino)-7-fluoro-4H-benzo[e][1,2,4] thiadiazine 1,1-dioxide]	1000 to 2000
CC1(C)CC1NC1=NS(=O)(=O)c2cc(F)c(Cl)cc2N1 (single isomer, unassigned) [Compound 21, (S*)-6-chloro-3-((2,2-dimethylcyclopropyl)amino)-7-fluoro-4H benzo[e][1,2,4] thiadiazine 1,1-dioxide]	500 to 1000
O=S1(=O)N=C(NC2CC23CC3)Nc2cc(Cl)c(F)cc21 (single isomer, unassigned) [Compound 30, (R*)-6-chloro-7-fluoro-3-(spiro[2.2]pentan-1-ylamino)-4H-benzo[e][1,2,4]-thiadiazine 1,1-dioxide]	< 500
O=S1(=O)N=C(NC2CC23CCC3)Nc2cc(Cl)c(F)cc21 (single isomer, unassigned) [Compound 16, (S*)-6-chloro-7-fluoro-3-(spiro[2.3]hexan-1-ylamino)-4H-benzo[e][1,2,4]-thiadiazine 1,1-dioxide]	500 to 1000
CC1(NC2=NS(=O)(=O)c3cc(F)ccc3N2)CCC1 [Compound 2, 7-fluoro-3-((1-methylcyclobutyl)amino)-4H-benzo[e][1,2,4]thiadiazine 1,1-dioxide]	< 500
CC1(C)CC1NC1=NS(=O)(=O)c2cc(F)c(Cl)cc2N1 (stereo not shown) [Compound 20, 6-chloro-3-((2,2-dimethylcyclopropyl)amino)-7-fluoro-4H-benzo[e][1,2,4] thiadiazine 1,1-dioxide]	< 500
C[C@H]1C[C@@H]1NC1=NS(=O)(=O)c2cc(F)c(Cl)cc2N1 (stereo in doubt) [Compound 26, 6-chloro-7-fluoro-3-(((1S*, 2S*)-2-methylcyclopropyl)amino)-4H-benzo[e][1,2,4]-thiadiazine 1,1-dioxide]	1000 to 2000
O=S1(=O)N=C(NC23CCC(C2)C3)Nc2ccc(F)cc21 [Compound 4, 3-(bicyclo[2.1.1]hexan-1-ylamino)-7-fluoro-4H-benzo[e][1,2,4]thiadiazine 1,1-dioxide]	500 to 1000
O=S1(=O)N=C(NC2CC23CC3)Nc2ccc(F)cc21 (stereo not shown) [Compound 8, 7-fluoro-(spiro[2.2]pentan-1-ylamino)-4H-benzo[e][1,2,4]thiadiazine 1,1-dioxide]	1000 to 2000
CC1(C)CC1NC1=NS(=O)(=O)c2cc(F)ccc2N1 (stereo not shown) [Compound 5, 3-((2,2-dimethylcyclopropyl)amino)-7-fluoro-4H-benzo[e][1,2,4]thiadiazine 1,1-dioxide]	1000 to 2000
CC1(NC2=NS(=O)(=O)c3cc(F)c(Cl)cc3N2)CCC1 [Compound 24, 6-chloro-7-fluoro-3-((1-methylcyclobutyl)amino)-4H-benzo[e][1,2,4]thiadiazine 1,1-dioxide]	< 500
C[C@@H]1C[C@H]1NC1=NS(=O)(=O)c2cc(F)c(Cl)cc2N1 (stereo in doubt) [Compound 27, 6-chloro-7-fluoro-3-(((1R*, 2R*)-2 methylcyclopropyl)amino)-4H-benzo[e][1,2,4]-thiadiazine 1,1-dioxide]	≥ 2000
O=S1(=O)N=C(NC23CC(F)(C2)C3)Nc2ccc(F)cc21 [Compound 3, 7-fluoro-3-((3-fluorobicyclo[1.1.1]pentan-1-yl)amino)-4H-benzo[e][1,2,4]thiadiazine 1,1-dioxide]	≥ 2000
O=S1(=O)N=C(NC2CC23CCC3)Nc2cc(Cl)c(F)cc21 (single isomer, unassigned) [Compound 17, (R*)-6-chloro-7-fluoro-3-(spiro[2.3]hexan-1-ylamino)-4H-benzo[e][1,2,4]-thiadiazine 1,1-dioxide]	< 500

system: INS-1E cells; assay: Glucose stimulated insulin secretion assay (GSIS) in INS-1E cells; assay type: cell-based, rat; details: INS-1E cell line, average inhibition
Procedure: as §1, §2, §3

Structure (SMILES)	% inhibition of Insulin (Average Inhibition (%))
C[C@@H]1CC1NC1=NS(=O)(=O)c2cc(F)c(Cl)cc2N1 (mixture of isomers) [Compound 25, (rac)-trans-6-chloro-7-fluoro-3-((2-methylcyclopropyl)amino)-4H-benzo[e][1,2,4|thiadiazine 1,1-dioxide]	C (C is equal to 10-25% inhibition)
CC1(C)CC1NC1=NS(=O)(=O)c2cc(F)ccc2N1 (single isomer, unassigned) [Compound 7, (R*)-3-((2,2-dimethylcyclopropyl)amino)-7-fluoro-4H-benzo[e][1,2,4]thiadiazine 1,1-dioxide]	B (B is equal to 25-50% inhibition)
CC12CC(NC3=NS(=O)(=O)c4cc(F)c(Cl)cc4N3)(C1)C2 [Compound 18, 6-chloro-7-fluoro-3-((3-methylbicyclo[1.1.1]pentan-1-yl)amino)-4H-benzo[e][1,2,4]thiadiazine 1,1-dioxide]	C (C is equal to 10-25% inhibition)
O=S1(=O)N=C(NC2CC23CC3)Nc2ccc(F)cc21 (single isomer, unassigned) [Compound 9, (S*)-7-fluoro-3-(spiro[2.2]pentan-1-ylamino)-4H-benzo[e][1,2,4]thiadiazine 1,1-dioxide]	B (B is equal to 25-50% inhibition)
O=S1(=O)N=C(NC2CC23CCC3)Nc2ccc(F)cc21 (stereo not shown) [Compound 11, 7-fluoro-3(spiro[2.3]hexan-1-ylamino)-4H-benzo[e][1,2,4]thiadiazine 1,1-dioxide]	B (B is equal to 25-50% inhibition)
CCC1(NC2=NS(=O)(=O)c3cc(F)ccc3N2)CC1 [Compound 12, 3-((1-ethylcyclopropyl)amino)-7-fluoro-4H-benzo[e][1,2,4]thiadiazine 1,1-dioxide]	C (C is equal to 10-25% inhibition)

same assay, conditions: Rattus norvegicus, INS-1E cell line

Structure (SMILES)	IC50 [nM]
O=S1(=O)N=C(NC2CC23CCC3)Nc2ccc(F)cc21 (stereo not shown) [Compound 11, 7-fluoro-3(spiro[2.3]hexan-1-ylamino)-4H-benzo[e][1,2,4]thiadiazine 1,1-dioxide]	500 to 1000

same assay, conditions: Rattus norvegicus, INS-1E cells, 10 μM

Structure (SMILES)	inhibition at 10 µM [%]
O=S1(=O)N=C(NC2(CF)CC2)Nc2ccc(Cl)cc21 [Compound 52]	10 to 25
O=S1(=O)N=C(NC2(CF)CC2)Nc2cc(Cl)c(F)cc21 [Compound 60]	≥ 50
CC1(NC2=NS(=O)(=O)c3cc(Cl)ccc3N2)CC1 [Compound 51]	10 to 25
O=S1(=O)N=C(NC(CF)CF)Nc2ccc(Cl)cc21 [Compound 49]	≥ 50
O=S1(=O)N=C(NC2CCOC2)Nc2ccc(Cl)cc21 (stereo not shown) [Compound 72]	25 to 50
COCC1(NC2=NS(=O)(=O)c3cc(F)c(Cl)cc3N2)CCC1 [Compound 69]	≥ 50
O=S1(=O)N=C(NC2(CF)CC2)Nc2ccc(F)cc21 [Compound 47]	10 to 25
CC(C)C1(NC2=NS(=O)(=O)c3cc(F)c(Cl)cc3N2)CC1 [Compound 64]	25 to 50
O=S1(=O)N=C(NC(CF)CF)Nc2ccc(F)cc21 [Compound 43]	10 to 25
O=S1(=O)N=C(NC2CCOC2)Nc2ccc(F)cc21 (stereo not shown) [Compound 71]	10 to 25
COCC1(NC2=NS(=O)(=O)c3cc(F)ccc3N2)CCC1 [Compound 65]	25 to 50
CC(C)C1(NC2=NS(=O)(=O)c3cc(F)ccc3N2)CC1 [Compound 63]	≥ 50
CC1(NC2=NS(=O)(=O)c3cc(F)c(Cl)cc3N2)CC1 [Compound 58]	≥ 50
O=S1(=O)N=C(NC23CC(C2)C3)Nc2ccc(Cl)cc21 [Compound 62]	25 to 50
CC1(NC2=NS(=O)(=O)c3cc(F)ccc3N2)CC1 [Compound 46]	≥ 50
O=S1(=O)N=C(NC2CCOC2)Nc2cc(Cl)c(F)cc21 (stereo not shown) [Compound 73]	≥ 50
